Values of other authors, collected in patent publication US4096336A, “5,6-Benzo analogues or prostaglandin E” (Miles Laboratories, Inc., priority 1977, dated 1978).
Read-outs that look alike come from different tables or passages of the source.

Legend:
growth hormone = conditions: rats
gastric secretion [1] = conditions: dogs
gastric secretion [2] = conditions: man
[3] = system: smooth muscle of the vas deferens; conditions: mammalian male reproductive system
thyroid activity = conditions: mice
adrenal glands = conditions: hypophysectimized rats
blood platelets = conditions: in vitro
[4] = system: adrenergic nervie endings; conditions: guinea pig
[5] = system: motor pathways in the central nervous system
[6] = system: ovarian progesterone secretion; conditions: sheep
tracheal smooth muscle = conditions: in vitro preparations
[7] = system: female reproductive system
luteolytic factors = conditions: variety of mammals

Compound	gastric secretion (gastric secretion [1])	thyroid activity (thyroid activity)	release of growth hormone (growth hormone)	steriodogenesis in the adrenal glands (adrenal glands)	transmitter release from adrenergic nerve endings [4]	transmission in motor pathways [5]	ovarian progesterone secretion [6]	effect on tracheal smooth muscle (tracheal smooth muscle)	other results
CCCCC[C@H](O)/C=C/[C@H]1C=CC(=O)[C@@H]1CCCCCCC(=O)O [PGA1]	inhibit gastric secretion	–	–	–	–	–	–	–	synthesis of growth hormone (growth hormone): increased synthesis of that hormone; gastric secretion (gastric secretion [2]): exhibits similar activity in man
CCCCC[C@H](O)/C=C/[C@H]1[C@H](O)CC(=O)[C@@H]1CCCCCCC(=O)O [PGE1, prostaglandin E1]	inhibit gastric secretion	increase thyroid activity	increase release of growth hormone	stimulate steriodogenesis in the adrenal glands	inhibit transmitter release	retards	inhibit ovarian progesterone secretion	relax	effect on smooth muscle of the vas deferens [3]: contracts the smooth muscle of the vas deferens; thrombogenesis (blood platelets): inhibits thrombogenesis in vitro
CCCCC[C@H](O)/C=C/[C@H]1[C@H](O)CC(=O)[C@@H]1C/C=C\CCCC(=O)O [PGE2]	inhibit gastric secretion	increase thyroid activity	increase release of growth hormone	stimulate steriodogenesis in the adrenal glands	inhibit transmitter release	–	–	relax	oxytocic effects ([7]; inducing labor): exerts potent oxytocic effects in inducing labor
CCCCC[C@H](O)/C=C/[C@@H]1[C@@H](CCCCCCC(=O)O)[C@@H](O)C[C@H]1O [PGF1α]	–	increase thyroid activity	–	stimulate steriodogenesis in the adrenal glands	–	–	inhibit ovarian progesterone secretion	–	luteolytic action (luteolytic factors): act as luteolytic factors
CCCCC[C@H](O)/C=C/[C@@H]1[C@@H](CCCCCCC(=O)O)[C@H](O)C[C@H]1O [PGF1β]	–	increase thyroid activity	–	–	–	–	–	–	–
CCCCC[C@H](O)/C=C/[C@@H]1[C@@H](C/C=C\CCCC(=O)O)[C@@H](O)C[C@H]1O [PGF2α]	–	–	–	–	–	facilitates transmission in motor pathways in the central nervous system	–	contracts the smooth muscle	induction of spontaneous abortions ([7]; early pregnancy): induces spontaneous abortions in early pregnancy; effect on fertility / gestation ([7]; female reproductive system): has contragestational effects
